# Measurements reported in patent publication US20240110183A1, “ANTIFIBROTIC AND ANTITUMOR ACTIVITY OF CD63 BLOCKADE” (The Board of Trustees of the Leland Stanford Junior …, priority 2020, published 2024).
# Test system: HK2, NRK52E, NRK49F cell lines
# Test: RT-qPCR analysis of kidney cell lines treated with TGFβ1
# Format: cell-based, human, rat
# Conditions: TGFβ1 10 ng/ml, FIG. 21
# Method: FIG. 21A-FIG. 21C. Activation of TGFβ1 signaling pathway elevated the expression of fibrotic related proteins in 3 kidney cell lines. (FIG. 21 FIG. 21A) Human epithelial (HK2), (FIG. 21 B) rat epithelial (NRK52E), (FIG. 21C) rat fibroblast (NRK49F) cell lines were treated with TGFβ1 (10 ng/ml) or TGFβ1 (10 ng/ml) plus LY2109761 (2.5 μM) for indicated times in hours.
# Activation of TGFβ1 signaling pathway elevated the expression of fibrotic related proteins in 3 kidney cell lines. Human epithelial (HK2), rat epithelial (NRK52E), rat fibroblast (NRK49F) cell lines were treated with TGFβ1 (10 ng/ml) or TGFβ1 (10 ng/ml) plus LY2109761 (2.5 μM) for times indicated in hours as shown in FIG. 21 A-C.
substance,measurement,setting,value
TGFβ1: TGFβ1 (10 ng/ml) used to activate the TGFβ1 signaling pathway in kidney cell lines,expression of CD63 and its known interactor TIMP1,"HK2, NRK52E, NRK49F",not increased
same,expression of fibrotic related proteins,"human epithelial (HK2), rat epithelial (NRK52E), rat fibroblast (NRK49F)",elevated
